From patent publication US10711041B2, “Lyophilisate containing a cyclic peptide of formula X1-[sequence]-X2” (priority 2013, dated 2020)
Bridges are numbered along the chain shown (N, C = ends). Where no end group is shown, it is not given here.

Test system: donor lung of a pig
Test: Ex vivo lung perfusion (EVLP) of pig donor lungs simulating lung transplantation
Protocol: Brain-dead pigs were brought into back position and a vertical sternotomy was carried out. The pericardium and both pleural cavities were opened. The lower and upper cavial venes were embraced. An inflow catheter was inserted into the lung artery by means of a purse-string suture in the right ventricular discharging tract. An inflow occlusion was obtained by connecting the lower and upper cavial venes, discharge occlusion by stapling off the aorta. The lungs then were protected by a prophylactic rinsing with cold, isotonic conservation solution (50 ml per kg body weight of the pig, comprising potassium ions, sodium ions, magnesium ions, calcium ions, chloride ions, dextran, glucose, buffer ions) through the inflow catheter. Incision of the left heart tube yields discharge. The lungs were aerated during that time period with 50% oxygen and ice sludge was given into both pleural cavities and into the mediastinum.
The explanation technique in sum was the removal with heart and esophagus according to the following steps: • a) Dissection of the soft tissue bridges to the thoracic cavity at both sides of the trachea. • b) Transsection of both pulmonal ligaments (very deep, difficult exposure), then of VCI, of the low thoracic aorta ascendens, or the esophagus, respectively. • c) Blunt-separation of residual mediastinal adhesions. • d) Entire distension of the donor lung before the tracheal closure with a clip.
After explantation the lungs were winded into gauze, put into an ice bag, filled with low-potassium-dextran-extracellular solution and stored at 4° C. for 18 to 24 hours.
For the ex-vivo lung conditioning the EVLP-technique was used ([…]). […] During the EVLP the lung function may be assessed regularly regarding key indicators. […]
The processing of the donor lung from the pig was started with sewing on a funnel-shaped tube from Silastic with a pressure-monitored catheter, implemented into the left atrial cuff (LA), for openly splinting the LA and for maintaining a closed perfusion circulation. […]

[1] = inhalation 1 mg/kg, vs Water for Injection

| Compound | arterio-venous pO2 difference ΔpO2 [1] | dynamic lung conformity (compliance) [1] | effects regarding the lung |
| --- | --- | --- | --- |
| C[C@@H]1NC(=O)CNC(=O)[C@H](CCC(=O)O)NC(=O)[C@@H]2CCCN2C(=O)[C@H]([C@@H](C)O)NC(=O)[C@H](CCC(=O)O)NC(=O)[C@H](CCCNC(=N)N)NC(=O)[C@H](CCC(N)=O)NC(=O)CNC(=O)[C@@H](N)CSSC[C@@H](C(=O)O)NC(=O)[C@H](Cc2ccc(O)cc2)NC(=O)[C@H](Cc2c[nH]c3ccccc23)NC(=O)[C@@H]2CCCN2C(=O)[C@H](CCCCN)NC(=O)[C@H](C)NC(=O)[C@H](CCC(=O)O)NC1=O [SEQ ID NO: 1] | improved | improved |  |
| Cyclo(CGQREAPAGAAAKPWYC) (disulfide 1-17) [SEQ ID NO: 7, reference compound] |  |  | no improving effects |
